Drawing on patent publication US20120028918A1, “PHARMACEUTICAL COMPOSITIONS AND METHODS OF MAKING SAME” (GLAXO WELLCOME MANUFACTURING PTE LTD., priority 2010, published 2012), this text covers IC50 for 2 compounds.

One assay addresses T1, Akt1 (Homo sapiens, UniProt P31749).
T1 construct: a middle T tag was added to the 5′ end of the full length Akt1 gene; middle T tag (EYMPME) (N); biotin tag (from pS2neo vector); made in house; host or cells: Drosophila S2 cells
The assay is described as follows: Akt kinase assay (HTRF, GSK-derived biotinylated peptide substrate). As to conditions: activated Akt1, HTRF, 120 minute preincubation; read-out: IC50 against Akt1. Format: biochemical. The method, then:
(§1) Activated Akt isoforms were assayed utilizing a GSK-derived biotinylated peptide substrate. The extent of peptide phosphorylation was determined by Homogeneous Time Resolved Fluorescence (HTRF) using a europium-coupled monoclonal antibody specific for the phosphopeptide in combination with a streptavidin-linked allophycocyanin (SA-APC) fluorophore which will bind to the biotin moiety on the peptide. When the europium and APC are in proximity (i.e. bound to the same phosphopeptide molecule), a non-radiative energy transfer takes place from the […] to the APC, followed by emission of light from APC at 665 nm.
(§2) Materials required for the assay: • A. 100 nM activated Akt1 or 225 nM activated Akt2 • B. 10×R for AKT assay buffer (500 mM Hepes pH 7.5, 1% PEG m.w. 15000-20000, 1 mM EDTA, 1 mM EGTA, 1% BSA, 20 mM β glycerol phosphate) • C. 1 M KCl • D. 50% glycerol • E. 250 mM MgCl2 • F. 50 mM ATP pH 7.0 • G. 0.2 M DTT • H. 1 mM GSK3α biotinylated peptide (SynPep biotin-[…]-COOH) • I. Stop Buffer: 40 mM EDTA (pH8.4) • J. 8.5 uM SA-APC (PerkinElmer #CR130-100, lot No. N01001K-AAG16) • K. 4.9 uM Eu-W 1024 labeled phos-GSK3 monoclonal antibody (PerkinElmer #CUSM63178) • L. Detection Reagent: 15 mM Tris-HCl ([…]), 0.1% Tween20, 250 nM SA-APC (PerkinElmer #CR130-100, lot No. N01001K-AAG16), 0.735 nM Eu-W1024 labeled phos-GSK3 monoclonal antibody (PerkinElmer #CUSM63178) The reaction was assembled using the following protocol: • A. Add 0.5 uL inhibitor to test wells or 0.5 uL DMSO to no drug control wells. • B. Prepare Enzyme diluent: 18000 uL 10×R for AKT assay buffer, 9600 uL 250 mM MgCl2, 12000 uL 1 M KCl, 18000 uL 50% Glycerol, 900 uL 0.2 M DTT, 121500 uL MilliQ water. • C. Prepare Enzyme mixture (E-Mix): To […] Enzyme diluent, added 4.3 uL of a 100 nM activated AKT1, 1.9 uL of a 225 nM stock of activated Akt2 so concentration AKT1 and Akt2 were 6 pM. • D. 10 uL of Stop Buffer was added manually to wells acting as Background control wells. Initiate preincubation reactions by adding 15 uL of E-Mix using Multidrop 384. Spin down assay plates after the addition of E-Mix. • E. Prepare ATP/Peptide working solution (S-Mix): 10000 uL 10×R for AKT assay buffer, 5000 uL 50% glycerol, 250 uL 0.2M DTT, 600 uL 50 mM ATP, 100 uL 1 mM GSK3 peptide, 34050 uL MilliQ water. • F. To wells where preincubation is being conducted, after the 120 minute preincubation, initiate kinase reactions by adding 5 uL S-Mix using FRD. […] Let kinase assays run for 60 minutes at 25° C. • G. Stop kinase reactions by adding 10 uL Stop Buffer, using Multidrop 384, to wells other than background wells. • H. 10 uL of Detection Reagent was added using FRD and stopped assays were stored at room temperature for more than 2 hours. • I. The plates were read on PHERAstar.
A general note: Time-resolved FRET reads energy transfer from a long-lived donor to a nearby acceptor.

For the next assay, the target named is T2, Akt2 (Homo sapiens, UniProt P31751).
T2 construct: a middle T tag was added to the 5′ end of the full length Akt2 using the PCR primer; middle T tag (EYMPME) (N); biotin tag (from pS2neo vector); made in house; host or cells: Drosophila S2 cells
The description is as above. As to conditions: activated Akt2, HTRF, 120 minute preincubation; read-out: IC50 against Akt2. It counts as biochemical. On the procedure:
as §1, §2

One may read the IC50 as the concentration needed to halve the response being measured.

Structures are written as SMILES.

T1 sequence (P31749 whole entry): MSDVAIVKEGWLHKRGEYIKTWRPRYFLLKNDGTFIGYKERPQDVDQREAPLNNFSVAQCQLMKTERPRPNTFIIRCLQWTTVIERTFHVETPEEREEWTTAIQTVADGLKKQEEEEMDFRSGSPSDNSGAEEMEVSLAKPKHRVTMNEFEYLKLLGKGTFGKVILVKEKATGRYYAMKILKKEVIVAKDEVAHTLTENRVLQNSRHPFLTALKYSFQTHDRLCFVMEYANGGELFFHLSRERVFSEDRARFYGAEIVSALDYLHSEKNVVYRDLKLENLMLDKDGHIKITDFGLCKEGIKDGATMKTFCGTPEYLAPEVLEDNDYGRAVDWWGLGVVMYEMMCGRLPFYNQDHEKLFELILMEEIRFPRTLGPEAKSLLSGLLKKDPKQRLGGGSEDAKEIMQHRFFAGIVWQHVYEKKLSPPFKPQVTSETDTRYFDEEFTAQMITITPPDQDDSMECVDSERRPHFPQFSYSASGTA
T2 sequence (P31751 whole entry): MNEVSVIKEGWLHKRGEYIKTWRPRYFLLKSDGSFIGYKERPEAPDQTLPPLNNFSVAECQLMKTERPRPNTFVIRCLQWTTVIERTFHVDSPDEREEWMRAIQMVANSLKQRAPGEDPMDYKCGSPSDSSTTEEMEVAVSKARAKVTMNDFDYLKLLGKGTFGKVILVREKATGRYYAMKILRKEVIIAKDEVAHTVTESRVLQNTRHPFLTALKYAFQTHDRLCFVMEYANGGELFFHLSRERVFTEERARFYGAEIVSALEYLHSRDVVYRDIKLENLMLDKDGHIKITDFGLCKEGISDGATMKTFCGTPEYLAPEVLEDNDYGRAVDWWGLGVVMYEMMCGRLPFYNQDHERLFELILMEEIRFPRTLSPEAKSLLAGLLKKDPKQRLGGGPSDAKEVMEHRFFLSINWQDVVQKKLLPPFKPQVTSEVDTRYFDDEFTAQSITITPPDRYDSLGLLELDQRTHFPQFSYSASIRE

As for `COc1cncc(-c2nc(-c3ccc([C@]4(N)C[C@](C)(O)C4)cc3)c(-c3ccccc3)s2)c1` [Compound 3-1, (1R,3R)-3-amino-3-(4-(2-(5-methoxypyridin-3-yl)-5-phenylthiazol-4-yl)phenyl)-1-methylcyclobutanol], the IC50 on Akt1 is 0.04 µM; on Akt2, 0.025 µM.

With `COc1ccc(-c2nc(-c3ccc([C@]4(N)C[C@](C)(O)C4)cc3)c(-c3ccccc3)s2)cn1` [Compound 2-1, (1R,3R)-3-amino-3-(4-(2-(6-methoxypyridin-3-yl)-5-phenylthiazol-4-yl)phenyl)-1-methylcyclobutanol], the 50% inhibitory concentration (IC50) came out at 0.091 µM at Akt1 and 0.026 µM at Akt2.
